Measurements reported in US20070213339A1 (Bayer Pharmaceuticals Corporation, priority 2004, published 2007).

Test system: Colo205 human colon carcinoma cell line
Assay: In vitro tumor cell proliferation assay (MTS, CellTiter 96 Aqueous One Solution)
Type: cell-based
Conditions: COLO 205, Colo205 cells, 72 hours compound exposure, MTS absorbance at 490 nm, read-out: IC50 (concentration of test compound required to inhibit proliferation of 50% of the cells)
Method in brief: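 Colo205 cells seeded at 2000 cells/well in RPMI-1640 with 10% serum, exposed to compound for 72 h at 37 °C, 5% CO2, in a 5-point dose-response up to 10-20 μM. Viability read by MTS absorbance at 490 nm; IC50 from background-corrected percent inhibition by linear regression.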

Structure (SMILES)	IC50
O=C(O)c1cn(-c2ccc(CNCC3CC3)cc2)c2c(Cl)c(N3CCN(c4ccccn4)CC3)c(F)cc2c1=O [Example 170, 8-chloro-1-(4-{[(cyclopropylmethyl)amino]methyl}phenyl)6-fluoro-4-oxo-7-(4-pyridin-2-ylpiperazin-1-yl)-1,4-dihydroquinoline-3-carboxylic acid]	< 0.5 µM
COc1c(N2CCN(c3ccccn3)CC2)c(F)cc2c(=O)c(C(=O)O)cn(-c3ccc(CN(C)C)cc3)c12 [Example 92, 1-{4-[(dimethylamino)methyl]phenyl}-6-fluoro-8-methoxy-4-oxo-7-(4-pyridin-2-ylpiperazin-1-yl)-1,4-dihydroquinoline-3-carboxylic acid]	< 0.5 µM
CC1C=CC(C)N1Cc1ccc(-n2cc(C(=O)O)c(=O)c3cc(F)c(N4CCN(c5ncccn5)CC4)c(Cl)c32)cc1 (centres unmarked) [Example 20, 8-chloro-1-{4-[(2,5-dimethyl-2,5-dihydro-1H-pyrrol-1-yl)methyl]phenyl}-6-fluoro-4-oxo-7-(4-pyrimidin-2-ylpiperazin-1-yl)-1,4-dihydroquinoline-3-carboxylic acid]	2 to 20 µM
N#Cc1cccnc1N1CCN(c2c(F)cc3c(=O)c(C(=O)O)cn(-c4ccc(CN5CCCC5)cc4)c3c2OC(F)(F)F)CC1 [Example 125, 7-[4-(3-cyanopyridin-2-yl)piperazin-1-yl]-6-fluoro-4-oxo-1-[4-(pyrrolidin-1-ylmethyl)phenyl]-8-(trifluoromethoxy)-1,4-dihydroquinoline-3-carboxylic acid]	< 0.5 µM
O=C(O)c1cn(-c2ccc(CN3CCCC3)cc2)c2c(Cl)c(N3CCN(c4ccccn4)CC3)c(F)cc2c1=O [Example 1, 8-chloro-6-fluoro-4-oxo-7-(4-pyridin-2-yl-piperazin-1-yl)-1-[4-(pyrrolidin-1-ylmethyl)phenyl]-1,4-dihydroquinoline-3-carboxylic acid]	< 0.5 µM
NC(=O)c1ccccc1N1CCN(c2c(F)cc3c(=O)c(C(=O)O)cn(-c4ccc(CN5CCCC5)cc4)c3c2Cl)CC1 [Example 10, 7-{4-[2-(aminocarbonyl)phenyl]piperazin-1-yl}-8-chloro-6-fluoro-4-oxo-1-[4-(pyrrolidin-1-ylmethyl)phenyl]-1,4-dihydroquinoline-3-carboxylic acid]	2 to 20 µM
COc1c(N2CCN(c3ccc(C(F)(F)F)cc3)CC2)c(F)cc2c(=O)c(C(=O)O)cn(-c3ccc(CN4CCCC4)cc3)c12 [Example 82]	2 to 20 µM

The remaining lines, values ahead:

IC50	Structure (SMILES)
0.5 to 2 µM	COc1c(N2CCN(c3ccc(C(C)=O)cc3)CC2)c(F)cc2c(=O)c(C(=O)O)cn(-c3ccc(CN(C)C)cc3)c12 [Example 103, 7-[4-(4-acetylphenyl)piperazin-1-yl]-1-{4-[(dimethylamino)methyl]phenyl}-6-fluoro-8-methoxy-4-oxo-1,4-dihydroquinoline-3-carboxylic acid]
< 0.5 µM	COc1c(N2CCN(c3ccccc3C#N)CC2)c(F)cc2c(=O)c(C(=O)O)cn(-c3ccc(CN4CCCCC4)cc3)c12 [Example 89, 7-[4-(2-cyanophenyl)piperazin-1-yl]-6-fluoro-8-methoxy-4-oxo-1-[4-(piperidin-1-ylmethyl)phenyl]-1,4-dihydroquinoline-3-carboxylic acid]
0.5 to 2 µM	Cc1ccc(N2CCN(c3c(F)cc4c(=O)c(C(=O)O)cn(-c5ccc(CN6CCCC6)cc5)c4c3OC(F)(F)Cl)CC2)c(C)c1 [Example 150, 8-[chloro(difluoro)methoxy]-7-[4-(2,4-dimethylphenyl)piperazin-1-yl]-6-fluoro-4-oxo-1-[4-(pyrrolidin-1-ylmethyl)phenyl]-1,4-dihydroquinoline-3-carboxylic acid]
0.5 to 2 µM	COc1c(N2CCN(c3ccc(F)cc3F)CC2)c(F)cc2c(=O)c(C(=O)O)cn(-c3ccc(CN(C)C)cc3)c12 [Example 101, 7-[4-(2,4-difluorophenyl)piperazin-1-yl]-1-{4-[(dimethylamino)methyl]phenyl}-6-fluoro-8-methoxy-4-oxo-1,4-dihydroquinoline-3-carboxylic acid]
